Source: patent US20220323437A1, “METHODS FOR TREATING PULMONARY ARTERIAL HYPERTENSION” (ACTELION PHARMACEUTICALS LTD, priority 2019, published 2022)
Read-outs that look alike come from different tables or passages of the source.

Key:
[1] = selexipag versus placebo; cited from earlier work
[2] = Pharmacokinetics of selexipag and ACT-333679 after oral and i.v. selexipag in subjects with stable PAH (Phase 3 switch study); format: in vivo, human; details: for AUC / Cmax: human, plasma, steady state; for AUC: read-out: AUCτ, ss Geom. Mean; for Cmax: read-out: Cmax, ss Geom. Mean
Method: This was a prospective, multicenter, open-label, single-sequence, cross-over, Phase 3 study. Based on the dose of selexipag received at study entry, subjects were allocated to one of the following groups, selexipag 200-1000 μg b.i.d. or selexipag 1200-1600 μg b.i.d. See, FIG. 1. The study comprised the following periods:
(ii) Treatment and observation period: The treatment and observation period included the following consecutive periods: • Period 1 included oral selexipag pre-treatment period for 1 day, in-hospital. This period started with intake of the morning dose of oral selexipag on Day 1 at Visit 2 and ended the following day, before initiation of the first infusion of i.v. selexipag. • Period 2 included i.v. selexipag treatment period for 36 hours [3 infusions], in-hospital. This period started in the morning of Day 2 at Visit 2 with the start of the first infusion of i.v. selexipag and ended in the evening of Day 3 at Visit 2 before the evening administration of oral selexipag. Administration of oral selexipag was interrupted during the i.v. selexipag treatment period. • Period 3 included oral selexipag post-treatment period for 7 to 11 day. This period started in the evening of Day 3 at Visit 2 with the administration of oral selexipag and ended 7-11 days later, at Visit 3.
Selexipag was provided as a dry powder to be reconstituted as an injectable solution for i.v. administration. Before administration, selexipag dry powder was to be reconstituted and diluted with sterile 0.9% NaCl solution. Each subject received an i.v. selexipag dose that corresponded to the subject's individual stable dose of oral selexipag. […] See, Table 4.
The intravenous infusion took place over a 87-minute period (2 infusions on Day 2 and 1 infusion on Day 3)
The following PK endpoints were analyzed for selexipag and its active metabolite, ACT-333679, after oral selexipag in Period 1 and after i.v. selexipag administration in Period 2. See, FIG. 2. • The area under the plasma-concentration time curve (AUC) during a dose interval at steady state (AUCτ, ss). • The maximum plasma concentration at steady state (Cmax, ss). • The time to reach maximum plasma concentration at steady state (tmax, ss). • Trough plasma concentration at steady state (Ctrough, ss).

## CC(C)N(CCCCOCC(=O)NS(C)(=O)=O)c1cnc(-c2ccccc2)c(-c2ccccc2)n1 [selexipag, 2-{4-[(5,6-diphenylpyrazin-2-yl)(propan-2-yl)amino]butoxy}-N-(methanesulfonyl)acetamide]
[1]
  risk of the primary composite end point of death or a complication related to pulmonary arterial hypertension: significantly lower
[2]; Period 2 vs Period 1
  tmax, ss between the i.v. and oral selexipag periods: comparable
[2]; after i.v. selexipag, 450-1800 μg b.i.d. dose range
  slope of dose proportional increase in exposure: 0.798
[2]; iv, Period 2 (i.v. selexipag)
  AUC: 18.8 ng·h/mL
  Cmax: 7.8 ng/mL
[2]; Period 1 (oral selexipag)
  AUC: 8.7 ng·h/mL
  Cmax: 3.9 ng/mL
[2]; i.v. to oral dose ratio 1.125
  dose-normalized geometric mean ratio (i.v./oral selexipag) for AUCτ, ss (90% CI): 2.13 (1.67, 2.70)
  dose-normalized geometric mean ratio (i.v./oral selexipag) for Cmax, ss (90% CI): 1.98 (1.62, 2.43)
